“Also recorded” adds a separate entry of the source.
Tested on: fibroblasts
Assay: Fibroblast attachment to tresylated titanium wire grafted with P-15
Type: cell-based
Conditions: then P-15 1 mg/ml in 100 mM phosphate buffer pH 7.4 overnight, compared with control wire not exposed to P-15
Protocol: In this Example, titanium wire was treated with tresylation and attachment of P-15, followed by exposure to fibroblasts. The titanium wire was washed thoroughly in ethanol, then soaking in a 0.1 N NaOH solution for 15 minutes, followed by washing 10× with DI H2O. The surface was then rinsed in full strength H2O2, then soaked in 50% H2O2 overnight. The wire was then placed in a tresylation reaction mixture of trifluoroethanesulfonyl chloride (200 ul), pyridine (1.0 ml), and tetrahydrofuran (20 ml) overnight, followed by washing in DI H2O. The surface was then placed in a solution containing P-15 1 mg/ml in 100 mM phosphate buffer, pH 7.4, overnight. Following this treatment, the wire was again rinsed in DI H2O, then placed in a cell culture which contained fibroblasts that had been fluorescently labeled for 24 hours.
As a control, a second titanium wire was treated identically to the first wire, described above, except that it was not exposed to P-15 before being exposed to the fluorescently-labeled cells.

## G-T-P-G-P-Q-G-I-A-G-Q-R-G-V-V (GTPGPQGIAGQRGVV) [P-15, collagen receptor agonist]
  attachment of fluorescently labeled fibroblasts to the wire (photomicrographs, FIG. 1): increased fibroblast binding; also recorded: far more attached cells

Source: patent publication US20070009568A1, “METHODS FOR IMMOBILIZING MOLECULES ON SURFACES” (priority 2005, published 2007)
